Earlier results in patent publication US6218375A, “Complex of ras-farnesyltransferase inhibitor and sulfobutylether-7-β-cyclodextrin or 2-hydroxypropyl-β-cyclodextrin and method” (priority 2000, dated 2001).

Key:
[1] = complexes with cyclodextrin derivatives, sublingual or buccal route
[2] = by β-cyclodextrin
[3] = by cyclodextrins

SMILES	elimination [1]	transfer into the systemic circulation [1]	stabilization [2]	water-solubility [3]
CC(=O)[C@H]1CC[C@H]2[C@@H]3CCC4=CC(=O)CC[C@]4(C)[C@H]3CC[C@]12C [progesterone]	only gradual elimination	effective transfer of these hormones into the systemic circulation	–	–
O=C(O)c1ccccc1O [salicyclic acid]	–	–	increases stabilization	–
CCN(CC)CCOC(=O)C(c1ccccc1)c1ccccc1 [adipherine]	–	–	–	increase water-solubility
CCCCC/C=C\C/C=C\CCCCCCCC(=O)O [linoleic acid]	–	–	increases stabilization	–
C[C@]12CC[C@H]3[C@@H](CCC4=CC(=O)CC[C@@]43C)[C@@H]1CC[C@@H]2O [testosterone]	only gradual elimination	effective transfer of these hormones into the systemic circulation	–	increase water-solubility
CC(=O)Oc1ccccc1C(=O)O [aspirin]	–	–	–	increase water-solubility
C=C1CC[C@H](O)C/C1=C/C=C1\CCC[C@]2(C)[C@@H]([C@H](C)CCCC(C)C)CC[C@@H]12 [vitamin D3]	–	–	–	increase water-solubility
CC(C)C12C=CC(C)(CC1)OO2 (centres unmarked) [ascaridole]	–	–	increases stabilization	–
CCOC(=O)c1ccc(N)cc1 [benzocaine]	–	–	increases stabilization	increase water-solubility
COc1ccc2c(c1)c(CC(=O)O)c(C)n2C(=O)c1ccc(Cl)cc1 [indomethacin]	–	–	increases stabilization	–
O=[N+]([O-])OCC(CO[N+](=O)[O-])O[N+](=O)[O-] [nitroglycerin]	–	–	increases stabilization	–
CCN(CC)CCOC(=O)c1ccc(N)cc1 [procaine]	–	–	increases stabilization	increase water-solubility
C[C@]12CC[C@@H]3c4ccc(O)cc4CC[C@H]3[C@@H]1CC[C@@H]2O [estradiol]	only gradual elimination	effective transfer of these hormones into the systemic circulation	–	–
C=CCS[S+]([O-])CC=C (centres unmarked) [allicin]	–	–	increases stabilization	–
